# According to paper PMC10094929, “Determination of Phenol with Peroxidase Immobilized on CaCO3” (International Journal of Molecular Sciences, 2023):
# Test system: T1, native peroxidase (horseradish peroxidase)
# T1 construct: gene PRXC1A
# Settings: free enzyme; phenol varied; 4-aminoantipyrine 0.3 mmol/L, hydrogen peroxide 4.68 mmol/L; 0.1 M phosphate-buffered saline pH 7.2; 24 °C
compound,measurement,value
Oc1ccccc1 [phenol],Km,994 µM
